Reference: US20190125753A1, “COMPOUNDS AND METHODS FOR INCREASING HEMATOPOIESIS” (University of Southern California, priority 2016, published 2019)

Experiments:
cord blood CD34+ cells = assay: Cord blood CD34+ cell culture, colony morphology at day 8; assay type: cell-based, human; conditions: 4GF medium, day 8 in culture
Experimental: Cord blood CD34^+ cells were cultured in serum free medium with different growth factor combination and different concentrations of YH250. We tested three serum free mediums with either 4 growth factors (4GF, or SF6T: SCF 100 ng/ml; Flt3 100 ng/ml, IL-6 20 ng/ml, and TPO 20 ng/ml) or 6 growth factors (6GF, or SF6TG3: SCF 100 ng/ml; Flt3 100 ng/ml, IL-6 20 ng/ml, TPO 20 ng/ml, GCSF 10 ng/ml, and IL-3 10 ng/ml). YH250 was at 0.3 μM or 1 μM concentration, DMSO, the solvent for YH250, was used as control. Frozen cord blood CD34+ cells were plated into 96 wells with different medium and different growth factors and different compound concentrations. At day 8 in culture, pictures were taken to record the cell growth and colony morphology (FIG. 12A).

bone marrow HSC = assay: Competitive repopulation assay after multi-dose 5-FU; assay type: in vivo, mouse; conditions: multi-dose YH250 with 5-FU
Text: At the last round of 5-FU treatment from FIG. 25A, bone marrow cells from survived animals were isolated (CD45.2) and mixed with competitor cells (CD45.1/CD45.2 hybrid) and injected to CD45.1 mice for competitive repopulation assay. This is to assess whether YH250, by multiple uses in this experiment setting, will result in changes of HSC activity and lead to HSC exhaustion (FIG. 26A).

bone marrow cells = assay: Brief (4 h) incubation of bone marrow cells, 14 days culture, FACS; assay type: cell-based, mouse
Experimental: Bone marrow cells were treated with DMSO or YH250 (0.5 μM) for 4 hours, then the compound was removed and the cells cultured in QBSF-58 medium for 14 days with 10 ng/ml of SCF, TPO, Flt3 ligand, and IL-6. At the end of culture, cells were recovered and analyzed for LSK cells with FACS.
In a further study, female CD45.1 mice bone marrow cells were incubated with DMSO, or YH249 (0.5 μM) or YH250 (0.5 μM) for 4 hrs in QBSF-58 media, then 2×10^4 cells were plated in QBSF-58 medium containing SCF, TPO, Flt3 and IL-6 (10 ng/ml for each) for 14 days. Cells were then recovered from plate for FACS analysis. […] Correspondingly, there are higher LSK cells (52%, 60% and 70% respectively for DMSO, YH249 and YH250). From every 10,000 analyzed cells, LSKCD34negt cell numbers are 437, 663 and 2051 for DMSO, YH249 and YH250 treated cells, respectively.

mouse bone marrow cells [1] = assay: Colony-forming cell (CFC) assay after 4 h in vitro treatment; assay type: cell-based
Experimental: Brief (less than 24 hours) treatment of HSC with YH250 or DMSO was conducted before the CFC or CFU-S12 assay. Mouse bone marrow cells were treated with DMSO (solvent control) or YH250 for 4 hours in serum free HSC expansion medium before the cells were recovered for a colony forming assay. 7-8 Days after cell plating in methylcellulose medium (Stemcell Technologies, Methocult GF M3434, Cat#3434), colonies were scored, and the cells from each plate were recovered and counted.
In fact, they also show similar biological functions with respect to HSPC.

cord blood cells [2] = assay: Cord blood cells incubated 24 hrs then BMT to transgenic NSG mice; assay type: in vivo, human; conditions: 10 μM 24 hrs in 4GF or 6GF medium; day 28th post BMT
Experimental: To examine p300/β-catenin antagonist YH250 effects on cord blood HSC in BMT, cord blood cells were incubated with 4GF or 6GF medium and 10 μM of YH250 for 24 hrs, then cells were recovered and transplanted to irradiated NOD.Cg-Prkdc^scidIL1rg^tmlwjlTg(CMV-[…], CSF2, KITLG)1Eva, MloySzJ; JAX stock#013062) mice, these are transgenic NSG mice expressing human interleukin-3, human GM-CSF and human stem cell factor. Blood were collected at day 28th post BMT to determine engraftment.

mouse bone marrow cells [3] = assay: 3-day in vitro culture of bone marrow cells, FACS; assay type: cell-based; conditions: 0.5 μM, 3 days, 200,000 live cells analyzed
Experimental: Mouse bone marrow cells were isolated and cultured in QBSF-58 medium with DMSO or YH250 0.5 μM (medium contains 10 ng/ml of SCF, TPO, Flt3 ligand, and IL-6) for 3 days and cells are recovered and analyzed for HSC surface markers with FACS.

[4] = tested on: LTR-HSC (LSKCD34−CD135−CD150+ cells); assay: BrdU incorporation in bone marrow HSPC in vivo; parameters: species or system mouse; conditions: 24 or 48 hrs post administration
Text: P300/-catenin antagonists stimulate HSPC proliferation both in vitro and in vivo. In this study, 24 or 48 hrs post either DMSO or YH250 administration, BrdU was given to animals and bone marrow cells were isolated and analyzed to determine HSPC proliferation (FIG. 15A). Bone marrow cells were stained with antibodies to lineage markers (CD3, CD4, CD8, B220, CD16, Gr-1, Mac-1), antibodies to Sca-1, c-kit, CD135, CD34, CD150 and BrdU.

LSK150+41+48+ cells = assay: RNA sequencing of progenitor population from treated mice; assay type: in vivo, mouse; conditions: 2 mg/kg vs DMSO, 16 hours
Experimental: DMSO or YH250 (2 mg/kg) were administrated to female C57/Black mice.

cord blood cells [5] = assay: Cord blood cell repopulation in NSG mice; assay type: in vivo, human; conditions: day 57 post BMT
Text: FIG. 11A depicts the experimental procedure.

bone marrow HSPC = assay: Competitive repopulation assay after 8.5Gy radiation (HSPC exhaustion); assay type: in vivo
[6] = 0.5 μM 4 hours, 14 days in QBSF-58 with SCF, TPO, Flt3 ligand, IL-6
[7] = 4 hours incubation then CFC assay

COc1cccc(CNC(=O)N2C3CN(Cc4cc(Cl)cc(Cl)c4N(C)C)C(=O)[C@H](Cc4ccc(O)cc4)N3C(=O)CN2C)c1OC (some centres unmarked) [YH250]
colony morphology (cord blood CD34+ cells): more close to “stem cell colony” morphology
lineage bias in short-term and long-term repopulation (bone marrow HSC): no lineage bias
percentage of LSK cells vs DMSO (bone marrow cells; [6]): significantly higher
percentage of Lineage negative cells vs DMSO (bone marrow cells; [6]): significantly higher
lineage negative cell (bone marrow cells; 0.5 μM 4 hrs, 14 days culture, DMSO 9%): 33%
LSK cells (bone marrow cells; 0.5 μM 4 hrs, 14 days culture, DMSO 52%): 70%
LSKCD34negt cell numbers (bone marrow cells; from every 10,000 analyzed cells, 0.5 μM 4 hrs, 14 days culture, DMSO 437): 2051
CELL#/plate (mouse bone marrow cells [1]; [7]): 9.5 × 10^5
CFC#/plate (mouse bone marrow cells [1]; [7]): 29
CFC colony number vs DMSO (mouse bone marrow cells [1]; 4 hours treatment, serum free medium, scored 7-8 days after plating): not significantly different
cell number in each plate vs DMSO (mouse bone marrow cells [1]; 4 hours treatment, cells recovered from plate): increased cell number in each plate
human CD34posit cells in blood vs DMSO treated cells (cord blood cells [2]): more human CD34posit cells
LSK 48 − 150+ % (mouse bone marrow cells [3]): 16%
LSK 135 + 34+ % (mouse bone marrow cells [3]): 67%
LSK 135 + 34+ Cell# (mouse bone marrow cells [3]): 4263
LSK 135 − 34+ % (mouse bone marrow cells [3]): 25%
LSK 135 − 34+ Cell# (mouse bone marrow cells [3]): 1602
LSK 135 − 34− % (mouse bone marrow cells [3]): 7%
LSK 135 − 34− Cell# (mouse bone marrow cells [3]): 445
LSK % (mouse bone marrow cells [3]): 16%
LSK Cell# (mouse bone marrow cells [3]): 6340
Lin-neg % (mouse bone marrow cells [3]): 20%
Lin-neg Cell# (mouse bone marrow cells [3]): 40015
LSK 48 − 150+ Cell# (mouse bone marrow cells [3]; DMSO 607): 992
BrdU positive cells in LTR-HSC [4]: more BrdU positive cells
Fold-Change Car1 (LSK150+41+48+ cells): −12.1 fold
Fold-Change Gm26377 (miRNA) (LSK150+41+48+ cells): −3.19 fold
Fold-Change Ighm (LSK150+41+48+ cells): 2.36 fold
Fold-Change Ighv11-2 (LSK150+41+48+ cells): 4.42 fold
Fold-Change Igkv19-93 (LSK150+41+48+ cells): 3.12 fold
Fold-Change Mid1 (LSK150+41+48+ cells): −2.8 fold
human CD34+ cells in bone marrow vs DMSO treated cells (cord blood cells [5]; in vitro treated cells): more human CD34+ cells in bone marrow
donor cell engraftment in blood (cord blood cells [5]; pre-incubation in vitro 24 hours before BMT): best engraftment in blood
engraftment level vs DMSO treated animals (bone marrow HSPC; bone marrow from 8.5Gy irradiated animals): similar
HSPC exhaustion (bone marrow HSPC; one dose 24 hours post lethal dose radiation): does not exhaust HSPC
